Assays:
Reg IIIβ gene = experiment: Gene expression inhibition by siRNA, Reg IIIβ mRNA by real-time quantitative RT-PCR; assay type: cell-based, rat; conditions: INS-1 cells, siRNA 100 nM, 24 hours after introduction
Description: (§1) INS-1 cells (rat pancreatic β cell line) were cultured in an incubator at 5% CO2/95% air and 37° C. using an RPMI 1640 medium (GIBCO) containing 10 mM HEPES, 10% FBS, 1 mM sodium pyruvate, and 50 μM β-mercaptoethanol. Subculturing was carried out every 5 days, using PBS containing 0.25% trypsin/0.02% EDTA.
(§2) The cells were seeded on a 12-well plate (Iwaki Glass Co. Ltd.) at a concentration of 0.25×10^5 cells/cm^2 and were cultured for 48 hours. A cocktail of three types of siRNAs to the Reg IIIβ gene, individual siRNAs (three types), siRNA to Lamin (positive control; B-Bridge), and a cocktail of three types of non-specific siRNAs (negative control; B-Bridge) were diluted with Opti-MEM (GIBCO) so as to produce the final concentrations of 100 nM. The respective RNAs were introduced into the cells using Lipofectamine 2000 (Invitrogen Corporation) and the cells were cultured for 24 hours. After washing the cells with PBS twice, total RNAs were prepared using a SV Total Isolation Kit (Promega Corporation) and cDNA pools were then prepared using reverse transcriptase M-MLV (Invitrogen Corporation). Real-time quantitative PCR was conducted under the conditions similarly to the mouse islet case. The expression level of the rat β-actin gene was analyzed as an internal standard in a similar manner. The sequences of the siRNAs and the sequences of specific primers for PCR are shown below.

Lamin gene = experiment: Gene expression inhibition by siRNA, Lamin mRNA by real-time quantitative RT-PCR; assay type: cell-based, rat; conditions: INS-1 cells, siRNA 100 nM, 24 hours after introduction
Description: as §1, §2

INS-1 cells = experiment: Analysis of cell growth, [3H] thymidine incorporation in INS-1 cells; assay type: cell-based, rat
Description: (§3) INS-1 cells (rat pancreatic β cell line) were cultured in an incubator at 5% CO2/95% air and 37° C. using an RMI 1640 medium (GIBCO) containing 10 mM HEPES, 10% FBS, 1 mM sodium pyruvate, 50 μM β-mercaptoethanol, 100 units/ml penicillin, and 100 μg/ml streptomycin. Subculturing was carried out every 7 days, using PBS containing 0.25% trypsin/0.02% EDTA
The cells were seeded on a 48-well plate at a concentration of 1×10^5 cells/well and were cultured for 48 hours. After washing the cells with PBS, the cells were cultured in an RPMI-1640 medium (test medium) for 12 to 15 hours which had been deprived of serum and to which 3 mM glucose and 0.1% BSA had been added. […] The cells were cultured in the media for 20 hours, and after further addition of [^3H] thymidine (Amersham) to the media in order to achieve a radioactivity of 1 μCi/well, the cells were cultured for additional 4 hours. After washing the cells with PBS twice followed by with 10% trichloroacetic acid (TCA) twice, the cells were fixed by TCA treatment for 30 minutes. The cells were solublized with 0.1 N NaOH and the radioactivity of each medium was measured with a liquid scintillation counter.

Reg IIIβ = experiment: Real-time quantitative RT-PCR of Reg IIIβ mRNA in INS-1 cells treated with PACAP; assay type: cell-based, rat
Description: as §3
Real-time quantitative PCR was conducted under the conditions similarly to the mouse islet case. The expression level of the β-actin gene was analyzed as an internal standard in a similar manner. In PCR the primers having the following sequences were used.

isolated islet = conditions: cited from earlier work

(3): double-stranded siRNA to Reg IIIβ, SEQ ID NO:20/21 (chain 1 GGAAACAGCUACCAAUAUATT; chain 2 UAUAUUGGUAGCUGUUUCCTT; chemistry not given here)
suppression of expression of Reg IIIβ gene vs negative control (Reg IIIβ gene): about 60%

Lamin siRNA: double-stranded siRNA to Lamin A/C, positive control (B-Bridge), SEQ ID NO:14/15 (chain 1 GGUGGUGACGAUCUGGGCUTT; chain 2 AGCCCAGAUCGUCACCACCTT; chemistry not given here)
suppression of expression of Lamin gene vs negative control (Lamin gene): about 65%

CC[C@H](C)[C@H](NC(=O)CNC(=O)[C@H](CC(=O)O)NC(=O)[C@H](CO)NC(=O)[C@@H](N)Cc1c[nH]cn1)C(=O)N[C@@H](Cc1ccccc1)C(=O)N[C@H](C(=O)N[C@@H](CC(=O)O)C(=O)N[C@@H](CO)C(=O)N[C@@H](Cc1ccc(O)cc1)C(=O)N[C@@H](CO)C(=O)N[C@@H](CCCNC(=N)N)C(=O)N[C@@H](Cc1ccc(O)cc1)C(=O)N[C@@H](CCCNC(=N)N)C(=O)N[C@@H](CCCCN)C(=O)N[C@@H](CCC(N)=O)C(=O)N[C@@H](CCSC)C(=O)N[C@@H](C)C(=O)N[C@H](C(=O)N[C@@H](CCCCN)C(=O)N[C@@H](CCCCN)C(=O)N[C@@H](Cc1ccc(O)cc1)C(=O)N[C@@H](CC(C)C)C(=O)N[C@@H](C)C(=O)N[C@@H](C)C(=O)N[C@H](C(=O)N[C@@H](CC(C)C)C(=O)NCC(=O)N[C@@H](CCCCN)C(=O)N[C@@H](CCCNC(=N)N)C(=O)N[C@@H](Cc1ccc(O)cc1)C(=O)N[C@@H](CCCCN)C(=O)N[C@@H](CCC(N)=O)C(=O)N[C@@H](CCCNC(=N)N)C(=O)N[C@H](C(=O)N[C@@H](CCCCN)C(=O)N[C@@H](CC(N)=O)C(=O)N[C@@H](CCCCN)C(N)=O)C(C)C)C(C)C)C(C)C)[C@@H](C)O [PACAP]
effect on cell growth (INS-1 cells; 3 mM glucose): No effects | effect on cell growth (INS-1 cells; 11 mM glucose): No effects | cell growth inhibition, dependence on PACAP concentration (INS-1 cells; high glucose concentration, varying PACAP concentration): inhibited the cell growth of INS-1 cells in a concentration-dependent manner | change in mRNA expression of Reg IIIβ (Reg IIIβ; 3 mM glucose): no change in expression | change in mRNA expression of Reg IIIβ (Reg IIIβ; 11 mM glucose): no change in expression | change in mRNA expression of Reg IIIβ (Reg IIIβ; high glucose concentration (25 mM), after 4 hours): expression-induction | change in mRNA expression of Reg IIIβ (Reg IIIβ; high glucose concentration (25 mM), until after 48 hours): continuous increase in the expression | level at which glucose-inducible insulin secretion is promoted (isolated islet): 10^−14 M
